Key:
[1] = Cannabinoid stability in cold-brewed coffee with tocopherol-containing emulsions; type: physicochemical; conditions: cold-brewed coffee base (FIG. 5)
Source text: FIG. 5 is a graph showing quantified THC content when alpha-tocopherol (Vitamin E, VE) was incorporated into our emulsion alongside THC. Alpha-tocopherol (Vitamin E, VE) was incorporated into the emulsion alongside THC.
FIG. 6 is a graph showing cannabinoid stability testing on a cold-brewed coffee product (20× concentrated base and final product) using two different emulsions containing tocopherols (QNE=our in-house Q-naturale+VitE emulsion; NGAO=Nanogen's (a 3rd party emulsion provider) antioxidant formulation).

[2] = THC content in infused hop water stored at room temperature; type: physicochemical; conditions: for protection of cannabinoid API against oxidative damage: infused beverage, tocopherols emulsified with cannabis oil, ascorbic acid about 0.5-1 mM in aqueous base
[3] = Heat-accelerated (~37° C.) THC stability with aqueous-phase vitamin C and/or EDTA; type: physicochemical; conditions: for THC loss compared to control: vitamin C or EDTA individually, actual hop water base (FIG. 9)
[4] = THC loss in RO water at pH 3.6 vs. neutral pH; type: physicochemical; conditions: 20 mg THC/355 mL, citric acid to pH 3.6 (FIG. 4)
Method: FIG. 4 is a graph showing an experiment ruling out pH as a driving factor behind THC loss. Dosed RO water to 20 mg THC/355 mL and used citric acid to pH down to 3.6 (which is the pH of the Infused hop water products) vs. neutral pH (had to bring H2O pH up a bit using sodium carbonate). No difference was observed.

[5] = In-house comparison of oxidation rates of emulsified cannabinoids
[6] = Color and flavor stability of infused hop water at 37° C. incubation; type: physicochemical

## Cc1c(C)c2c(c(C)c1O)CC[C@@](C)(CCC[C@H](C)CCC[C@H](C)CCCC(C)C)O2 [Alpha-tocopherol, alpha-tocopherol]
[1]
  THC content, emulsion formulated with vs without Vitamin E: no appreciable difference

## CCCCCc1cc(O)c2c(c1)OC(C)(C)c1ccc(C)cc1-2 [CBN, cannabinol]
[2]; room temperature infused hop water samples (FIG. 2)
  Maximal CBN levels observed: about 20 % of the original THC content

## O=C(O)CN(CCN(CC(=O)O)CC(=O)O)CC(=O)O [EDTA, ethylenediaminetetraacetic acid]
[3]
  THC loss compared to control: able to mitigate THC loss compared to control, but did not fully prevent it

## CCCCCc1cc(O)c2c(c1)OC(C)(C)[C@@H]1CCC(C)=C[C@@H]21 [THC, Δ^9-tetrahydrocannabinol, reference compound]
[3]; aerated samples, shaken with air exposure (FIG. 8)
  rate of THC loss in high dissolved oxygen (DO) samples: fastest rate of THC loss
[3]; heat-accelerated, three emulsion formulations (FIG. 10)
  rate of THC loss with intentional increase in DO levels: faster rates of loss
[2]; infused hop water beverages, room temperature, no antioxidants added, linear (FIG. 1)
  rate of THC loss: roughly −0.35 % THC per day
[4]
  THC loss, pH 3.6 vs neutral pH: No difference
[5]
  rate of oxidation compared to CBD: drastically faster rates of oxidation

## O=C1O[C@H]([C@@H](O)CO)C(O)=C1O [vitamin C, ascorbic acid]
[3]; 0.5-10 mM vitamin C, infused hop water, 4 weeks heat-accelerated (~9 months at RT) (FIG. 11)
  antioxidant efficacy between concentrations: little difference
[3]; 30 days @ ~37° C., equivalent to ~10 months at room temperature
  protection to THC: sufficient protection
[3]; Vitamin C 176 ppm=1 mM and/or EDTA 25 ppm in aqueous phase, hop terpene-infused base (FIG. 7)
  THC (cannabinoid) loss: slowed rates of cannabinoid loss
[3]; infused hop water products (FIG. 11)
  concentration of vitamin C concluded sufficient: 500 µM
[3]
  THC loss compared to control: able to mitigate THC loss compared to control, but did not fully prevent it
[2]
  protection of cannabinoid API against oxidative damage: ample protection
[2]; room temperature, after roughly five months
  THC loss compared to tocopherol-only preparations: negligible amounts of THC loss
[6]; heat-accelerated, 30 days @ ~37° C.
  color and flavor alterations in the beverage product: strongly protected against unfavorable color and flavor alterations
[6]; infused hop water, 3 weeks at 37° C., EDTA 25 ppm, vitamin C 176 ppm
  formation of off-colors and flavors: largely prevent formation of off-colors and flavors

## Tocopherols
[2]
  protection of cannabinoid API against oxidative damage: not found to suitably mitigate oxidative damage by itself
